Converted amounts (≈) assume the structure as drawn. Where a SMILES comes first, the peptide text is derived from it. [ ]: non-standard residue; d: D form. The star is where a group is joined. d(aIle) = CC[C@H](C)[C@@H](N)C(=O)O; dDab = NCC[C@@H](N)C(=O)O; Octanoyl = CCCCCCCC(=O)*; Dab = NCC[C@H](N)C(=O)O
Columns and labels:
K. pneumoniae ATCC 13883 = assay type: cell-based, Klebsiella pneumoniae; conditions: ATCC 13883, 20 h
Method: (§1) All minimum inhibitory concentrations (MICs) were determined according to the Clinical and Standards Laboratory Institute (CLSI) guidelines. In brief, agar plates were inoculated from glycerol stocks and incubated overnight at 35 °C. Peptide DMSO stocks were dispensed into 96-well round-bottom plates using a TECAN D300e dispenser. Colistin sulfate (Sigma-Aldrich) was dissolved in water and serially diluted in a cation-adjusted Mueller Hinton broth (10 μL per well). Final concentrations of the test compounds were 0.06 to 64 μg/mL. Inocula were prepared by direct colony suspension in NaCl at 0.5 MacFarland, which was further diluted 200-fold in cation-adjusted Mueller Hinton broth for a target inoculum of 2 × 10^5 colony forming units (CFUs)/mL. 100 μL portion of the prepared inoculum was added to each well of the prepared plates containing the test compounds. Plates were sealed with parafilm and incubated for 20 h at 35 °C. Images of all plates were recorded, and MIC was assessed visually.

K. pneumoniae 1228586 = assay type: cell-based, Klebsiella pneumoniae; conditions: 1228586, 20 h
Method: as §1

K. pneumoniae 1227947 = assay type: cell-based, Klebsiella pneumoniae; conditions: 1227947, 20 h
Method: as §1

S. aureus ATCC 29213 = assay type: cell-based, Staphylococcus aureus; conditions: ATCC 29213, 20 h
Method: as §1

S. aureus UAMS-1625 = assay type: cell-based, Staphylococcus aureus; conditions: S. aureus UAMS-1625 (BV18); CLSI broth dilution, cation-adjusted Mueller Hinton broth, 20 h, 35 °C, read visually
Method: as §1

S. aureus 1126387 = assay type: cell-based, Staphylococcus aureus; conditions: 1126387, 20 h
Method: as §1

ATCC 25922 = assay type: cell-based, Enterococcus faecalis; conditions: ATCC 25922, 20 h
Method: as §1

E. faecalis ATCC 29212 = assay type: cell-based, Enterococcus faecalis; conditions: ATCC 29212, 20 h
Method: as §1

E. coli 1214245 = assay type: cell-based, Escherichia coli; conditions: 1214245, 20 h
Method: as §1

E. coli 1220120 = assay type: cell-based, Escherichia coli; conditions: 1220120, 20 h
Method: as §1

E. coli ATCC 25922 = assay type: cell-based, Escherichia coli; conditions: ATCC 25922, 20 h
Method: as §1

A. baumannii ATCC 17978 = assay type: cell-based, Acinetobacter baumannii; conditions: ATCC 17978, 20 h
Method: as §1

A. baumannii HUMC1 = assay type: cell-based, Acinetobacter baumannii; conditions: HUMC1, 20 h
Method: as §1

A. baumannii IHMA 777621 = assay type: cell-based, Acinetobacter baumannii; conditions: IHMA 777621, 20 h
Method: as §1

P. aeruginosa 1218019 = assay type: cell-based, Pseudomonas aeruginosa; conditions: 1218019, 20 h
Method: as §1

P. aeruginosa 1226072 = assay type: cell-based, Pseudomonas aeruginosa; conditions: 1226072, 20 h
Method: as §1

P. aeruginosa PAO1 = assay type: cell-based, Pseudomonas aeruginosa; conditions: PAO1, 20 h
Method: as §1

E. faecium ATCC 51559 = assay type: cell-based, Enterococcus faecium; conditions: ATCC 51559, 20 h
Method: as §1

E. faecium IHMA 890472 = assay type: cell-based, Enterococcus faecium; conditions: IHMA 890472, 20 h
Method: as §1

Rabbit red blood cells = experiment: Hemolysis assay; assay type: cell-based; conditions: rabbit red blood cells in PBS, 37 °C, 1 h, absorbance at 405 nm, normalization to the Triton X-100 control; 0.25 to 128 μg/mL tested
Method: Peptides, dissolved in DMSO, were dispensed into 96-well round-bottom microplates using a TECAN D300e dispenser and subsequently diluted with 100 μL of PBS. PBS or 2% Triton X-100 was used as negative and positive controls, respectively. Rabbit red blood cells (BioConcept) were diluted in PBS to a final concentration of 2%, and 100 μL was added to each well of the prepared 96-well plates. The final concentration of the test compounds was 0.25 to 128 μg/mL. Plates were incubated at 37 °C for 1 h and afterward subjected to centrifugation at 1000g for 5 min. Then, 30 μL of supernatant was transferred to a new round-bottom plate, and absorbance was measured at 405 nm (TECAN Infinite F200). EC50s were calculated after blank subtraction and normalization to the Triton control.

Compound: CCCCCCCC(=O)N[C@@H](C(=O)N[C@H](CCN)C(=O)NCC(=O)N[C@H](CO)C(=O)N[C@H](Cc1c[nH]c2ccccc12)C(=O)N[C@@H](CO)C(=O)N[C@@H](CCN)C(=O)N[C@H](CCN)C(=O)N[C@@H](Cc1ccc(O)cc1)C(=O)N[C@@H](CCC(=O)O)C(=O)N[C@H](C(=O)N[C@@H](C(=O)N[C@@H](C)C(=O)O)[C@@H](C)CC)C(C)C)C(C)C [Oct-Tyr9] (Octanoyl-[dV][dDab]G[dS][dW]S[Dab][dDab]YEV[d(aIle)]A-OH)
- MIC (K. pneumoniae ATCC 13883): 4 µg/mL (≈ 2.6 µM)
- MIC (K. pneumoniae 1228586): 4 µg/mL (≈ 2.6 µM)
- MIC (K. pneumoniae 1227947): 4 µg/mL (≈ 2.6 µM)
- MIC (S. aureus ATCC 29213): >64 µg/mL
- MIC (S. aureus UAMS-1625): >64 µg/mL
- MIC (S. aureus 1126387): >64 µg/mL
- MIC (ATCC 25922): 64 µg/mL (≈ 41.6 µM)
- MIC (E. faecalis ATCC 29212): 64 µg/mL (≈ 41.6 µM)
- MIC (E. coli 1214245): 2 µg/mL (≈ 1.3 µM)
- MIC (E. coli 1220120): 4 µg/mL (≈ 2.6 µM)
- MIC (E. coli ATCC 25922): 2 µg/mL (≈ 1.3 µM)
- MIC (A. baumannii ATCC 17978): 32 µg/mL (≈ 20.8 µM)
- MIC (A. baumannii HUMC1): 32 µg/mL (≈ 20.8 µM)
- MIC (A. baumannii IHMA 777621): 32 µg/mL (≈ 20.8 µM)
- MIC (P. aeruginosa 1218019): 4 µg/mL (≈ 2.6 µM)
- MIC (P. aeruginosa 1226072): 4 µg/mL (≈ 2.6 µM)
- MIC (P. aeruginosa PAO1): 64 µg/mL (≈ 41.6 µM)
- MIC (E. faecium ATCC 51559): 64 µg/mL (≈ 41.6 µM)
- MIC (E. faecium IHMA 890472): 32 µg/mL (≈ 20.8 µM)

Compound: CCCCCCCC(=O)N[C@@H](C(=O)N[C@H](CCN)C(=O)NCC(=O)N[C@H](CO)C(=O)N[C@H](Cc1c[nH]c2ccccc12)C(=O)N[C@@H](CO)C(=O)N[C@@H](CCN)C(=O)N[C@H](CCN)C(=O)N[C@H](C(=O)N[C@@H](CCC(=O)O)C(=O)N[C@H](C(=O)N[C@@H](C(=O)N[C@@H](C)C(=O)O)[C@@H](C)CC)C(C)C)[C@@H](C)CC)C(C)C [Oct-Ile9] (Octanoyl-[dV][dDab]G[dS][dW]S[Dab][dDab]IEV[d(aIle)]A-OH)
- Hemolysis EC50 (Rabbit red blood cells): >128 µg/mL
- MIC (K. pneumoniae ATCC 13883): 2 µg/mL (≈ 1.35 µM)
- MIC (K. pneumoniae 1228586): 4 µg/mL (≈ 2.69 µM)
- MIC (K. pneumoniae 1227947): 4 µg/mL (≈ 2.69 µM)
- MIC (S. aureus ATCC 29213): 64 µg/mL (≈ 43 µM)
- MIC (S. aureus UAMS-1625): >64 µg/mL
- MIC (S. aureus 1126387): >64 µg/mL
- MIC (ATCC 25922): 64 µg/mL (≈ 43 µM)
- MIC (E. faecalis ATCC 29212): 64 µg/mL (≈ 43 µM)
- MIC (E. coli 1214245): 2 µg/mL (≈ 1.35 µM)
- MIC (E. coli 1220120): 2 µg/mL (≈ 1.35 µM)
- MIC (E. coli ATCC 25922): 2 µg/mL (≈ 1.35 µM)
- MIC (A. baumannii ATCC 17978): 16 µg/mL (≈ 10.8 µM)
- MIC (A. baumannii HUMC1): 16 µg/mL (≈ 10.8 µM)
- MIC (A. baumannii IHMA 777621): 16 µg/mL (≈ 10.8 µM)
- MIC (P. aeruginosa 1218019): 16 µg/mL (≈ 10.8 µM)
- MIC (P. aeruginosa 1226072): 16 µg/mL (≈ 10.8 µM)
- MIC (P. aeruginosa PAO1): 64 µg/mL (≈ 43 µM)
- MIC (E. faecium ATCC 51559): 64 µg/mL (≈ 43 µM)
- MIC (E. faecium IHMA 890472): 32 µg/mL (≈ 21.5 µM)
